Key:
CDK9/Cyclin T1 = biological target: T1, CDK9/Cyclin T1 (Homo sapiens, UniProt P50750); test: Kinase assay using CDK9/Cyclin T1; assay type: biochemical; settings: read-out: CDK9 (activity range)
T1 construct: made in house; host or cells: HEK293 cells, recombinant adenovirus
Excerpt: Cloning of CDK9 and Cyclin T1:
Both cDNA fragments were cloned by PCR into pDONR201 vectors using the gateway recombination system (Invitrogen) according to the manufacturer's recommendations. The fragments were subcloned into a gateway-adapted shuttle vector (pPM7) for production of recombinant adenovirus. All plasmids were verified by restriction digests and sequencing analysis.
Expression and Purification of CDK9/Cyclin T1 Proteins:
Expression and purification was in principle performed as described by Cotten et al. (M. Cotten et al., Nucleic acids research, 2003, 31(28), 128).
Kinase Assay Using CDK9/Cyclin T1:
Kinase assays were performed in principle as described by Cotten et al. (M. Cotten et al., Nucleic acids research, 2003, 31(28), 128).

CDK2/CyclinA = biological target: T2, CDK2/CyclinA (Homo sapiens, UniProt P24941); test: Kinase assay determining CDK2/CyclinA activity; assay type: biochemical; settings: read-out: CDK2 (activity range)
T2 construct: purchased Proqinase
Procedure: Kinase Assays Determining CDK2/CyclinA and CDK5/p35 Activity:
Kinase assays were performed as described by the manufacturers recommendations (Proqinase for CDK2/CyclinA and Upsate for CDK5/p35).

T1 sequence (P50750 whole entry): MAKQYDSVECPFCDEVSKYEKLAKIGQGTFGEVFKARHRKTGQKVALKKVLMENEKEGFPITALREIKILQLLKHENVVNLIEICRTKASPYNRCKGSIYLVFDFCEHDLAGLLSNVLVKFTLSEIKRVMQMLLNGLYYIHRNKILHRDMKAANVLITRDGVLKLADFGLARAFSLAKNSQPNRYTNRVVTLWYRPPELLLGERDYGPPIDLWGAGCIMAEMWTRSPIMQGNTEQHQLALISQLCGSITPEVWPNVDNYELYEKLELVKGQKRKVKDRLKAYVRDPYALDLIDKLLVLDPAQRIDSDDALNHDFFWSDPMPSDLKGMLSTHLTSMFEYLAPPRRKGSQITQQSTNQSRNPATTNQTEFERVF
T1 sequence (O60563 whole entry partner): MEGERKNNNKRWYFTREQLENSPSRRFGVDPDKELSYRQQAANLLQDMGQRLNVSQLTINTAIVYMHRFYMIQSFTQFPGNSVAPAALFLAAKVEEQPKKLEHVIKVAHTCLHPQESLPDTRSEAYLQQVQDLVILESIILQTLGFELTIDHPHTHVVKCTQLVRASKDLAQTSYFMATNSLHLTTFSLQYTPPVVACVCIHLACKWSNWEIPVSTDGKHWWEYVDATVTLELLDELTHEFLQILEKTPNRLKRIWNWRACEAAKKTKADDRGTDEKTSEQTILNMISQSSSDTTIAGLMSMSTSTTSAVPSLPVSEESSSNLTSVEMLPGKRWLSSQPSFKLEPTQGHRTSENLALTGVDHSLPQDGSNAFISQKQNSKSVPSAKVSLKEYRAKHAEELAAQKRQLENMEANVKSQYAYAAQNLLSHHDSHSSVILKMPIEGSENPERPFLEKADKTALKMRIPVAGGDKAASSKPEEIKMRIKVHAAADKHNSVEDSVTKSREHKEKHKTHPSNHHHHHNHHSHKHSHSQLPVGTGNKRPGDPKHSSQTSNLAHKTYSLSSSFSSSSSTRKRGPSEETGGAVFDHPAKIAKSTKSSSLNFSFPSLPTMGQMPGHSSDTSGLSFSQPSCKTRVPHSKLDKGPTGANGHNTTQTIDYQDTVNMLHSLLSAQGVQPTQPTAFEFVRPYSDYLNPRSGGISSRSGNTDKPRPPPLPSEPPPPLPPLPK

| SMILES | IC50 (CDK9/Cyclin T1) | IC50 (CDK2/CyclinA) |
| --- | --- | --- |
| COc1ccccc1-c1cc(Nc2ccc(NC(=O)c3ccc4ccccc4c3O)cc2)ncn1 [(139)] | 1 to 1000 nM | 1000 to 10000 nM |
| Cc1ccc(Nc2cc(-c3cccc(CO)c3)ncn2)cc1NS(C)(=O)=O [(183)] | 1000 to 10000 nM | 1000 to 10000 nM |
| COC(=O)CN(c1ccc(Nc2cc(-c3ccccc3OC)ncn2)cc1)S(=O)(=O)c1ccc(C)cc1 [(28)] | 1000 to 10000 nM | 1000 to 10000 nM |
| COc1ccc(-c2cc(NCCc3ccncc3)ncn2)cc1 [(92)] | 10000 to 250000 nM | 10000 to 250000 nM |
| Nc1cccc(-c2cc(Nc3cccc(S(N)(=O)=O)c3)ncn2)c1 [(214)] | 1 to 1000 nM | 1000 to 10000 nM |
| COc1ccccc1-c1cc(N(C)c2ccc(NS(=O)(=O)c3ccc(C)cc3)cc2)ncn1 [(96)] | 1000 to 10000 nM | 1000 to 10000 nM |
| Cc1ccc(Nc2cc(-c3cccc(NS(C)(=O)=O)c3)ncn2)cc1NS(C)(=O)=O [(108)] | 1000 to 10000 nM | 1 to 1000 nM |
| COc1ccccc1-c1cc(Nc2ccc(NC(=O)C(c3ccccc3)N(C)C)cc2)ncn1 (stereo not drawn) [(101)] | 1 to 1000 nM | 1000 to 10000 nM |
| COc1ccccc1-c1cc(Nc2ccc(NC(=O)c3ccc(N4CCN(C)CC4)cc3)cc2)ncn1 [(49)] | 1 to 1000 nM | 1000 to 10000 nM |
| O=C(Nc1ccc(Nc2cc(-c3ccccc3OCc3ccccc3)ncn2)cc1)[C@@H]1CCCCN1 [(164)] | 1 to 1000 nM | 1 to 1000 nM |
| COc1ccccc1-c1cc(Nc2ccc(NC(=O)CC(C)(C)C)cc2)ncn1 [(42)] | 1000 to 10000 nM | 1000 to 10000 nM |
| CCCN(c1ccc(Nc2cc(-c3ccccc3OC)ncn2)cc1)S(=O)(=O)c1ccc(C)cc1 [(18)] | 1000 to 10000 nM | 10000 to 250000 nM |
| Cc1ccc(Nc2cc(-c3cccc(N)c3)ncn2)cc1NS(C)(=O)=O [(12)] | 1 to 1000 nM | 1 to 1000 nM |
| Oc1ccccc1-c1cc(NCCc2ccncc2)ncn1 [(94)] | 1000 to 10000 nM | 10000 to 250000 nM |
| COc1ccc(-c2cc(Nc3cccc(S(N)(=O)=O)c3)ncn2)cc1 [Compound 215] | 1 to 1000 nM | 1 to 1000 nM |
| Cc1ccc(Nc2cc(-c3cccc(N)c3)ncn2)cc1NS(=O)(=O)c1cn(C)cn1 [(144)] | 1 to 1000 nM | 1 to 1000 nM |
| c1ccc(COc2ccccc2-c2cc(NCCc3ccncc3)ncn2)cc1 [(7)] | 1 to 1000 nM | 1000 to 10000 nM |
| COc1ccccc1-c1cc(Nc2ccc(NC(=O)C(C)(C)C)cc2C)ncn1 [(119)] | 10000 to 250000 nM | 10000 to 250000 nM |
| COc1ccccc1-c1cc(Nc2ccc(NC(=O)c3ccc4c(c3)OCO4)cc2)ncn1 [(130)] | 1 to 1000 nM | 1000 to 10000 nM |
| COc1ccccc1-c1cc(Nc2ccc(NC(=O)C3(NC(=O)OC(C)(C)C)CCCC3)cc2)ncn1 [(47)] | 1 to 1000 nM | 10000 to 250000 nM |
| COc1ccccc1-c1cc(Nc2ccc(NC(=O)c3cn(C)cn3)cc2)ncn1 [(70)] | 1 to 1000 nM | 1000 to 10000 nM |
| COc1ccc(-c2cc(Nc3ccc(C)c(NS(C)(=O)=O)c3)ncn2)cc1 [(3)] | 1000 to 10000 nM | 1 to 1000 nM |
| CCCCNS(=O)(=O)c1cccc(Nc2cc(-c3ccccc3OC)ncn2)c1 [(184)] | 1 to 1000 nM | 1000 to 10000 nM |
| CC(C)(C)C(=O)Nc1ccc(Nc2cc(NCCCO)ncn2)cc1 [(80)] | 10000 to 250000 nM | 10000 to 250000 nM |
| COc1ccccc1-c1cc(Nc2ccc(NC(=O)C3CC4CCC3C4)cc2)ncn1 (stereo not drawn) [(36)] | 1 to 1000 nM | 10000 to 250000 nM |
| CS(=O)(=O)Nc1cccc(Nc2cc(-c3cccc(N)c3)ncn2)c1 [(121)] | 1 to 1000 nM | 1000 to 10000 nM |
| COc1ccccc1-c1cc(Nc2ccc(NC(=O)NCc3ccc(C)cc3)cc2)ncn1 [(112)] | 1 to 1000 nM | 10000 to 250000 nM |

| SMILES | IC50 (CDK9/Cyclin T1) | IC50 (CDK2/CyclinA) |
| --- | --- | --- |
| COc1ccccc1-c1cc(Nc2ccc(NC(=O)c3ccc(N)cc3)cc2)ncn1 [(8)] | 1 to 1000 nM | 1000 to 10000 nM |
| COc1ccccc1-c1cc(Nc2ccc(C(=O)Nc3ccc(C(C)C)cc3)cc2)ncn1 [(137)] | 1000 to 10000 nM | 10000 to 250000 nM |
| CCCS(=O)(=O)Nc1cc(Nc2cc(-c3cccc(N)c3)ncn2)ccc1C [(116)] | 1 to 1000 nM | 1 to 1000 nM |
| Nc1ccc(C(=O)Nc2ccc(Nc3cc(NCC4CCCCC4)ncn3)cc2)cc1 [(43)] | 1000 to 10000 nM | 10000 to 250000 nM |
| Cc1ccc(S(=O)(=O)Nc2ccc(Nc3cc(-c4ccc(O)cc4)ncn3)cc2)cc1 [(11)] | 1 to 1000 nM | 1 to 1000 nM |
| COC(=O)c1ccc(Nc2cc(-c3ccccc3OC)ncn2)cc1 [(15)] | 1 to 1000 nM | 1 to 1000 nM |
| C=Cc1ccccc1-c1cc(Nc2ccc(NC(=O)C(C)(C)C)cc2)ncn1 [(126)] | 1000 to 10000 nM | 10000 to 250000 nM |
| Cc1ccc(S(=O)(=O)Nc2ccc(Nc3cc(-c4cccc(/C=C/C(=O)O)c4)ncn3)cc2)cc1 [(40)] | 10000 to 250000 nM | 10000 to 250000 nM |
| O=C(Nc1ccc(Nc2cc(-c3ccc(Oc4ccccc4)cc3)ncn2)cc1)[C@@H]1CCCCN1 [(174)] | 1 to 1000 nM | 1000 to 10000 nM |
| COc1ccccc1-c1cc(Nc2ccc(C(=O)Nc3ccc(N4CCOCC4)cc3)cc2)ncn1 [(125)] | 1 to 1000 nM | 1000 to 10000 nM |
| COc1ccccc1-c1cc(Nc2ccc(C(=O)N[C@@H]3CCCC[C@H]3O)cc2)ncn1 (racemic) [(135)] | 1 to 1000 nM | 1000 to 10000 nM |
| COc1ccccc1-c1cc(Nc2ccc(NC(=N)N)cc2)ncn1 [(53)] | 1000 to 10000 nM | 1000 to 10000 nM |
| COc1ccccc1-c1cc(Nc2ccc(NC(=O)NC(C)(C)C)cc2)ncn1 [(113)] | 1 to 1000 nM | 1000 to 10000 nM |
| Nc1ccc(C(=O)Nc2ccc(Nc3cc(-c4cccc(N)c4)ncn3)cc2)cc1 [(21)] | 1000 to 10000 nM | 1000 to 10000 nM |
| CC(C)Oc1ccccc1-c1cc(NCCc2ccncc2)ncn1 [(99)] | 1 to 1000 nM | 1000 to 10000 nM |
| COc1ccc(-c2cc(Nc3ccc(NC(=O)c4ccc(N)cc4)cc3)ncn2)cc1 [(6)] | 1 to 1000 nM | 1000 to 10000 nM |
| COc1ccccc1-c1cc(Nc2ccc(NC(=O)[C@@H]3CCN3)cc2)ncn1 [(90)] | 1 to 1000 nM | 1000 to 10000 nM |
| Nc1ccc(C(=O)Nc2ccc(Nc3cc(NCCO)ncn3)cc2)cc1 [(60)] | 1000 to 10000 nM | 10000 to 250000 nM |
| CC(C)(C)C(=O)Nc1ccc(Nc2cc(-c3ccccc3C(F)(F)F)ncn2)cc1 [(114)] | 10000 to 250000 nM | 10000 to 250000 nM |
| COc1cccc(-c2cc(Nc3ccc(NC(=O)c4ccc(N)cc4)cc3)ncn2)c1OC [(56)] | 1000 to 10000 nM | 1000 to 10000 nM |
| COc1ccccc1-c1cc(Nc2ccc(C(=O)Nc3ccc(O)cc3)cc2)ncn1 [(136)] | 1 to 1000 nM | 1000 to 10000 nM |
| COc1ccccc1-c1cc(Nc2ccc(NC(=O)c3ccc4[nH]cnc4c3)cc2)ncn1 [(138)] | 1000 to 10000 nM | 10000 to 250000 nM |
| Nc1ccc(C(=O)Nc2ccc(Nc3cc(-c4ccccc4OCc4ccccc4)ncn3)cc2)cc1 [(4)] | 1 to 1000 nM | 1000 to 10000 nM |
| COc1ccccc1-c1cc(Nc2cccc(C(N)=O)c2)ncn1 [(115)] | 1 to 1000 nM | 1 to 1000 nM |
| Cc1ccc(Nc2cc(-c3cccc(N(C)C)c3)ncn2)cc1NS(C)(=O)=O [(157)] | 1 to 1000 nM | 1000 to 10000 nM |
| CS(=O)(=O)Nc1cc(Nc2cc(-c3cccc(N)c3)ncn2)ccc1OCc1ccccc1 [(120)] | 1000 to 10000 nM | 1000 to 10000 nM |
| COc1ccc(-c2cc(Nc3ccc(NC(=O)c4ccc(N)cc4)cc3)ncn2)c(OC)c1 [(31)] | 1 to 1000 nM | 1 to 1000 nM |

Source: patent US8084457B2, “Pharmaceutically active 4,6-disubstituted aminopyrimidine derivatives as modulators of protein kinases” (Lead Discovery Center GmbH, priority 2003, dated 2011)
